Measurements: the CheMixHub ionic liquid set

Experiment: xn = mol fraction of the nth substance listed

CC[n+]1ccn(C)c1.N#C[N-]C#N + OCC(F)(F)F + CCO
viscosity [mPa·s], 100 kPa
Details | 298.15 K | 303.15 K | 308.15 K | 313.15 K | 318.15 K
x1 = 0.0355, x2 = 0.8508 | – | 0.27 | 0.22 | 0.16 | 0.15
x1 = 0.0692, x2 = 0.8058 | 0.93 | 0.78 | 0.7 | 0.61 | 0.57
x1 = 0.1059, x2 = 0.7569 | 1.52 | 1.32 | 1.19 | 1.07 | 1
x1 = 0.1341, x2 = 0.7174 | 1.96 | 1.71 | 1.55 | 1.41 | 1.31
x1 = 0.1703, x2 = 0.668 | 2.49 | 2.19 | 1.99 | 1.82 | –
x1 = 0.2026, x2 = 0.6226 | 2.94 | 2.59 | 2.36 | 2.16 | –
x1 = 0.2373, x2 = 0.574 | 3.4 | 3.01 | 2.74 | 2.51 | –
x1 = 0.2705, x2 = 0.5266 | 3.82 | 3.39 | 3.09 | 2.82 | –
x1 = 0.3059, x2 = 0.4761 | 4.24 | 3.77 | 3.43 | 3.14 | –
x1 = 0.3367, x2 = 0.4558 | 4.59 | 4.1 | 3.72 | 3.39 | –
x1 = 0.3741, x2 = 0.4288 | 5 | 4.47 | 4.05 | 3.69 | –
x1 = 0.4093, x2 = 0.4055 | 5.37 | 4.8 | 4.35 | 3.95 | –
x1 = 0.4361, x2 = 0.3894 | 5.63 | 5.04 | 4.56 | 4.14 | –
x1 = 0.4751, x2 = 0.3581 | 6.01 | 5.38 | 4.86 | 4.41 | –
x1 = 0.5091, x2 = 0.3393 | 6.33 | 5.67 | 5.11 | 4.62 | –
x1 = 0.539, x2 = 0.314 | 6.6 | 5.91 | 5.32 | 4.81 | –
x1 = 0.576, x2 = 0.2854 | 6.92 | 6.19 | 5.57 | 5.03 | –
x1 = 0.6046, x2 = 0.2689 | 7.16 | 6.41 | 5.75 | 5.19 | –
x1 = 0.6344, x2 = 0.2517 | 7.42 | 6.62 | 5.94 | 5.36 | –
x1 = 0.673, x2 = 0.2236 | 7.74 | 6.9 | 6.18 | 5.57 | –
x1 = 0.7094, x2 = 0.2009 | 8.04 | 7.15 | 6.4 | 5.77 | –
x1 = 0.7331, x2 = 0.1948 | 8.23 | 7.31 | 6.54 | 5.9 | –
x1 = 0.7722, x2 = 0.1661 | 8.55 | 7.57 | 6.77 | 6.11 | –
x1 = 0.8061, x2 = 0.1434 | 8.84 | 7.79 | 6.97 | 6.29 | –

CCCC[n+]1ccn(C)c1.F[B-](F)(F)F + OCCO
298.15 K, 100 kPa, x1 = 1
Details | electrical conductivity [S/m] | viscosity [mPa·s]
– | 0.243 | 104.7

CCCC[n+]1ccn(C)c1.F[B-](F)(F)F + OCCOCCOCCOCCO
Details | viscosity [mPa·s]
298.15 K, 101 kPa, x2 = 0 | 94.4

CCCC[n+]1ccn(C)c1.O=C([O-])C(F)(F)F + OCCOCCOCCOCCO
298.15 K, 101 kPa
Details | viscosity [mPa·s]
x2 = 0 | 71.1
x2 = 0.5 | 71

CCCCCCCCn1cc[n+](C)c1.O=S(=O)([N-]S(=O)(=O)C(F)(F)F)C(F)(F)F + c1ccccc1
293 K, 101 kPa
Details | viscosity [mPa·s]
x1 = 0.2 | 7.34
x1 = 0.6 | 46.2

CCCC[n+]1ccn(C)c1.F[B-](F)(F)F + c1ccncc1
298.15 K, 101 kPa, x2 = 0
Details | electrical conductivity [S/m] | viscosity [mPa·s]
– | 0.194 | 116
